Our source for the CP50 values is patent US20240245793A1, “PSD-95 INHIBITORS AND USES THEREOF” (priority 2021, published 2024).

In the first series the test system is HeLa cells stably expressing HaloGFP. Description: Chloroalkane penetration assay (CAPA), membrane permeability and cellular uptake.
Conditions: not given
It counts as cell-based. The text has this: Since PSD-95 is located intracellularly, it is essential for any drug targeting PSD-95 to efficiently cross the cell membrane. To assess the cellular permeability and delivery to the cytosol of the compounds as defined herein, the cellular chloroalkane penetration assay (CAPA) may be used (Peraro et al. 2018). This assay takes advantage of a modified haloalkane dehalogenase designed to covalently bind chloroalkane (CA) molecules. A HeLa cell line expressing a fusion protein comprising a HaloTag, a green fluorescent protein (GFP) and a mitochondria-targeting peptide is used to report cytosolic delivery. The general format of the CAPA is a pulse-chase assay (Deprey & Kritzer, 2020). Cells expressing the HaloTag enzyme are incubated with CA-tagged peptides. When these CA-peptides penetrate the cell membrane and reach the cytosol, they will bind to and react with the HaloTag (pulse step). Following a washing step, the cells are incubated with a CA-tagged dye that quantitatively penetrates the cell membrane and reacts with remaining unreacted HaloTag sites (chase step). Flow cytometry is used to measure the fluorescence intensity of the cells and the measured fluorescence is inversely proportional to the amount of CA-peptides that reach the penetrated the cells and can thus be used to assess cytosolic delivery. The obtained data is commonly expressed as CP50 values, the concentration at which 50% cell penetration is observed. The CP50 value of a compound may be measured as described in example 4.
The membrane permeability of compounds 10 to 75 was determined in HeLa cells stably expressing HaloGFP exclusively located in the cytosol. Cells were seeded at a density of 40.000 cells/well one day prior to the experiment. After the growth media was aspirated and replaced by 100 μL of Opti-MEM, 25 μL of a prepared serial dilution of the ligand in Opti-MEM was added to the cells (constant DMSO concentration), and the plate was incubated for 4 h at 37° C. and 5% CO2. The contents of the wells were aspirated, and cells were washed with fresh Opti-MEM for 15 min. After aspiration of the wash, the cells were incubated with TAMRA-CA (5 μM) for 15 min. After aspiration of the chase solution, cells were washed with Opti-MEM for 30 min. Following removal of the wash, cells were trypsinized, resuspended in PBS (2% FBS), and analyzed using a benchtop flow cytometer. Using no ligand and no TAMRA-CA control well, the obtained fluorescence intensity data was normalized and plotted as dose-response curves. Reported CP50 values represent half-maximum red fluorescence which behaves inverse to cell penetration of the ligand.
The molecule `CC(C)C[C@H](NC(=O)[C@@H](NC(=O)[C@H](CCC(=O)O)NC(=O)[C@H](CCCCN)NC(=O)CCOCCOCCN(CCOCCOCCC(=O)N[C@@H](CCCCN)C(=O)N[C@@H](CCC(=O)O)C(=O)N[C@H](C(=O)N[C@@H](CC(C)C)C(=O)N[C@H](C(=O)O)C(C)C)[C@@H](C)O)C(=O)[C@H](CCCNC(=N)N)NC(=O)[C@H](CCCNC(=N)N)NC(=O)[C@H](CCCNC(=N)N)NC(=O)[C@H](CCCNC(=N)N)NC(=O)[C@H](CCCNC(=N)N)NC(=O)[C@H](CCCNC(=N)N)NC(=O)[C@H](CCCNC(=N)N)NC(=O)[C@H](CCCNC(=N)N)NC(=O)[C@H](CCCNC(=N)N)NC(=O)CCC(=O)NCCOCCOCCCCCCCl)[C@@H](C)O)C(=O)N[C@H](C(=O)O)C(C)C` [Compound 24] had a CP50 of 0.78 ± 0.05 µM.

Take `CC[C@H](C)[C@H](NC(=O)CCOCCOCCN(CCOCCOCCC(=O)N[C@H](C(=O)N[C@@H](CCC(=O)O)C(=O)N[C@H](C(=O)N[C@@H](CC(=O)O)C(=O)N[C@H](C(=O)O)C(C)C)[C@@H](C)O)[C@@H](C)CC)C(=O)[C@H](C)NC(=O)[C@H](CC(C)C)NC(=O)[C@H](CCCCN)NC(=O)[C@H](CC(C)C)NC(=O)[C@H](C)NC(=O)[C@H](C)NC(=O)[C@H](CCCCN)NC(=O)[C@H](CC(C)C)NC(=O)[C@H](C)NC(=O)[C@H](CCCCN)NC(=O)[C@H](CC(C)C)NC(=O)[C@H](C)NC(=O)[C@H](CC(C)C)NC(=O)[C@H](CCCCN)NC(=O)[C@H](CC(C)C)NC(=O)[C@H](C)NC(=O)[C@H](CC(C)C)NC(=O)[C@H](CCCCN)NC(=O)CCC(=O)NCCOCCOCCCCCCCl)C(=O)N[C@@H](CCC(=O)O)C(=O)N[C@H](C(=O)N[C@@H](CC(=O)O)C(=O)N[C@H](C(=O)O)C(C)C)[C@@H](C)O` [Compound 55]: the CP50 is 3.7 ± 0.3 µM.

Molecule `CC[C@H](C)[C@H](NC(=O)CCOCCOCCN(CCOCCOCCC(=O)N[C@H](C(=O)N[C@@H](CCC(=O)O)C(=O)N[C@H](C(=O)N[C@@H](CC(=O)O)C(=O)N[C@H](C(=O)O)C(C)C)[C@@H](C)O)[C@@H](C)CC)C(=O)[C@H](CO)NC(=O)[C@H](CCC(=O)O)NC(=O)[C@H](CCCNC(=N)N)NC(=O)[C@H](CCCNC(=N)N)NC(=O)[C@H](CCCNC(=N)N)NC(=O)[C@H](CCCCN)NC(=O)[C@H](CCCCN)NC(=O)[C@H](CCCNC(=N)N)NC(=O)[C@H](CO)NC(=O)[C@H](CCC(=O)O)NC(=O)[C@H](CCCNC(=N)N)NC(=O)[C@H](CCCNC(=N)N)NC(=O)[C@H](CCCNC(=N)N)NC(=O)[C@H](CCCCN)NC(=O)[C@H](CCCCN)NC(=O)[C@H](CCCNC(=N)N)NC(=O)CCC(=O)NCCOCCOCCCCCCCl)C(=O)N[C@@H](CCC(=O)O)C(=O)N[C@H](C(=O)N[C@@H](CC(=O)O)C(=O)N[C@H](C(=O)O)C(C)C)[C@@H](C)O` [Compound 51] returned a CP50 of 3.2 ± 0.5 µM.

In the case of `CC[C@H](C)[C@H](NC(=O)CCOCCOCCN(CCOCCOCCC(=O)N[C@H](C(=O)N[C@@H](CCC(=O)O)C(=O)N[C@H](C(=O)N[C@@H](CC(=O)O)C(=O)N[C@H](C(=O)O)C(C)C)[C@@H](C)O)[C@@H](C)CC)C(=O)[C@@H](CCCNC(=N)N)NC(=O)[C@H](CCCNC(=N)N)NC(=O)[C@@H](CCCCN)NC(=O)[C@H](CCCCN)NC(=O)[C@@H](CCCNC(=N)N)NC(=O)CNC(=O)[C@@H](CCCNC(=N)N)NC(=O)[C@H](CCCNC(=N)N)NC(=O)[C@@H](CCCNC(=N)N)NC(=O)CCC(=O)NCCOCCOCCCCCCCl)C(=O)N[C@@H](CCC(=O)O)C(=O)N[C@H](C(=O)N[C@@H](CC(=O)O)C(=O)N[C@H](C(=O)O)C(C)C)[C@@H](C)O` [Compound 41], the CP50 is 180 ± 8.2 µM.

Take `CC[C@H](C)[C@H](NC(=O)CCOCCOCCN(CCOCCOCCC(=O)N[C@H](C(=O)N[C@@H](CCC(=O)O)C(=O)N[C@H](C(=O)N[C@@H](CC(=O)O)C(=O)N[C@H](C(=O)O)C(C)C)[C@@H](C)O)[C@@H](C)CC)C(=O)[C@H](CCCCNC(=O)CCC(=O)NCCOCCOCCCCCCCl)NC(=O)CCCNC(=O)CC[C@@H]1NC(=O)[C@@H](CCCNC(=N)N)NC(=O)[C@H](CCCNC(=N)N)NC(=O)[C@@H](CCCNC(=N)N)NC(=O)[C@H](CCCNC(=N)N)NC(=O)[C@H](Cc2ccc3ccccc3c2)NC(=O)[C@@H](Cc2ccccc2)NC(=O)[C@H](Cc2ccccc2)NC1=O)C(=O)N[C@@H](CCC(=O)O)C(=O)N[C@H](C(=O)N[C@@H](CC(=O)O)C(=O)N[C@H](C(=O)O)C(C)C)[C@@H](C)O` [Compound 63]: the CP50 is 11.2 ± 0.7 µM.

Regarding `CC[C@H](C)[C@H](NC(=O)CCOCCOCCN(CCOCCOCCC(=O)N[C@H](C(=O)N[C@@H](CCC(=O)O)C(=O)N[C@H](C(=O)N[C@@H](CC(=O)O)C(=O)N[C@H](C(=O)O)C(C)C)[C@@H](C)O)[C@@H](C)CC)C(=O)[C@H](CCCNC(=N)N)NC(=O)[C@H](CCCNC(=N)N)NC(=O)[C@H](CCCNC(=N)N)NC(=O)[C@H](CCCNC(=N)N)NC(=O)[C@H](CCCNC(=N)N)NC(=O)CCC(=O)NCCOCCOCCCCCCCl)C(=O)N[C@@H](CCC(=O)O)C(=O)N[C@H](C(=O)N[C@@H](CC(=O)O)C(=O)N[C@H](C(=O)O)C(C)C)[C@@H](C)O` [Compound 65], the CP50 was determined as 1.17 ± 0.37 µM.

The same series, now with this note: CA-tagged NPEG4-(IETDV)2 with various CPP-tags, 4 h at 37° C.; mean ± SEM (Table 11, FIG. 8).
In turn, `CC[C@H](C)[C@H](NC(=O)CCOCCOCCN(CCOCCOCCC(=O)N[C@H](C(=O)N[C@@H](CCC(=O)O)C(=O)N[C@H](C(=O)N[C@@H](CC(=O)O)C(=O)N[C@H](C(=O)O)C(C)C)[C@@H](C)O)[C@@H](C)CC)C(=O)[C@@H](CCCNC(=N)N)NC(=O)[C@@H](CCCNC(=N)N)NC(=O)[C@@H](CCCNC(=N)N)NC(=O)[C@@H](CCC(N)=O)NC(=O)[C@@H](CCCNC(=N)N)NC(=O)[C@@H](CCCNC(=N)N)NC(=O)[C@@H](CCCCN)NC(=O)[C@@H](CCCCN)NC(=O)[C@@H](CCCNC(=N)N)NC(=O)CNC(=O)[C@@H](Cc1ccc(O)cc1)NC(=O)CCC(=O)NCCOCCOCCCCCCCl)C(=O)N[C@@H](CCC(=O)O)C(=O)N[C@H](C(=O)N[C@@H](CC(=O)O)C(=O)N[C@H](C(=O)O)C(C)C)[C@@H](C)O` [Compound 39] came in with a CP50 of 10.7 ± 0.7 µM.

Regarding `CC[C@H](C)[C@H](NC(=O)CCOCCOCCN(CCOCCOCCC(=O)N[C@H](C(=O)N[C@@H](CCC(=O)O)C(=O)N[C@H](C(=O)N[C@@H](CC(=O)O)C(=O)N[C@H](C(=O)O)C(C)C)[C@@H](C)O)[C@@H](C)CC)C(=O)[C@@H]1CC(=O)NC[C@H](NC(=O)CCC(=O)NCCOCCOCCCCCCCl)C(=O)N[C@@H](CCCCN)C(=O)N[C@@H](C)C(=O)N2CCC[C@H]2C(=O)N[C@@H](CCC(=O)O)C(=O)N[C@@H]([C@@H](C)O)C(=O)N[C@@H](C)C(=O)N[C@@H](CC(C)C)C(=O)N1)C(=O)N[C@@H](CCC(=O)O)C(=O)N[C@H](C(=O)N[C@@H](CC(=O)O)C(=O)N[C@H](C(=O)O)C(C)C)[C@@H](C)O` [Compound 61], the CP50 worked out at 13.2 ± 0.4 µM.

The same series, now with this note: CA-tagged ligands, 4 h at 37° C.; L-TAT and L-Arg9; mean ± SEM (Table 10, FIG. 7).
Consider `CC(C)[C@H](NC(=O)[C@@H](NC(=O)[C@@H](NC(=O)[C@H](CCC(=O)O)NC(=O)[C@@H](NC(=O)CCOCCOCCN(CCOCCOCCC(=O)N[C@H](C(=O)N[C@@H](CCC(=O)O)C(=O)N[C@H](C(=O)N[C@H](C(=O)N[C@H](C(=O)O)C(C)C)C(C)C)[C@@H](C)O)C(C)C)C(=O)[C@H](CCCNC(=N)N)NC(=O)[C@H](CCCNC(=N)N)NC(=O)[C@H](CCCNC(=N)N)NC(=O)[C@H](CCC(N)=O)NC(=O)[C@H](CCCNC(=N)N)NC(=O)[C@H](CCCNC(=N)N)NC(=O)[C@H](CCCCN)NC(=O)[C@H](CCCCN)NC(=O)[C@H](CCCNC(=N)N)NC(=O)CNC(=O)[C@H](Cc1ccc(O)cc1)NC(=O)CCC(=O)NCCOCCOCCCCCCCl)C(C)C)[C@@H](C)O)C(C)C)C(=O)O` [Compound 22], for which the CP50 came to 86.1 ± 4.5 µM.

`CC(C)C[C@H](NC(=O)[C@@H](NC(=O)[C@H](CCC(=O)O)NC(=O)[C@H](CCCCN)NC(=O)CCOCCOCCN(CCOCCOCCC(=O)N[C@@H](CCCCN)C(=O)N[C@@H](CCC(=O)O)C(=O)N[C@H](C(=O)N[C@@H](CC(C)C)C(=O)N[C@H](C(=O)O)C(C)C)[C@@H](C)O)C(=O)[C@H](CCCNC(=N)N)NC(=O)[C@H](CCCNC(=N)N)NC(=O)[C@H](CCCNC(=N)N)NC(=O)[C@H](CCC(N)=O)NC(=O)[C@H](CCCNC(=N)N)NC(=O)[C@H](CCCNC(=N)N)NC(=O)[C@H](CCCCN)NC(=O)[C@H](CCCCN)NC(=O)[C@H](CCCNC(=N)N)NC(=O)CNC(=O)[C@H](Cc1ccc(O)cc1)NC(=O)CCC(=O)NCCOCCOCCCCCCCl)[C@@H](C)O)C(=O)N[C@H](C(=O)O)C(C)C` [Compound 12] yielded a CP50 of 72.5 ± 4.4 µM.
